The experiment addresses T1, 5-HT3A receptor (Homo sapiens, UniProt P46098).
T1 construct: gene HTR3A
T1 sequence (P46098 24-478): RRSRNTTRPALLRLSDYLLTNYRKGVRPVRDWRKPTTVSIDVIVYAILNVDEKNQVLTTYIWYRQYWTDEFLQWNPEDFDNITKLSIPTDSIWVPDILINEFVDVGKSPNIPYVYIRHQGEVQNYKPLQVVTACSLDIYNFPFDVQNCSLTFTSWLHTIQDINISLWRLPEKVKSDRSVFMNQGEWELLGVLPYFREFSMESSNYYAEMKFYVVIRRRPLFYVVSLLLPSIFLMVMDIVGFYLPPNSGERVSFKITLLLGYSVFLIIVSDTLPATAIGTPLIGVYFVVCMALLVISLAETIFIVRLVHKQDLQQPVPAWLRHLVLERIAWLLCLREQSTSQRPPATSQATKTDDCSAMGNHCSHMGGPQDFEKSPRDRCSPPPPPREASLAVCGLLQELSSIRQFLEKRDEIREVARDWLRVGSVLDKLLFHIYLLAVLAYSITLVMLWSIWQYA
The experiment in a line: cell-based.

Drawing on PMC3831706 (British Journal of Pharmacology, 2013), this text covers Ki for one compound.

As a reminder, the Ki is the equilibrium dissociation constant of an inhibitor or competing ligand from its target. A higher Ki goes with a looser hold on the target. With `O=C1c2cccc3c2[C@H](CCC3)CN1[C@@H]1CN2CCC1CC2` [PAL, palonosetron], the affinity, expressed as Ki, was 0.22 ± 0.07 nM.
